Reference: patent publication US7851006B2, “Taste potentiator compositions and beverages containing same” (Cadbury Adams USA LLC, priority 2005, dated 2010)

Legend:
[1] = system: perceived sweetness of pH 3.2 buffered sucrose solution (expert panel members); test: Sucrose Equivalent Value (SEV): expert panel matches test solution to stock sucrose solutions; type: in vivo; details: for effect on sweetness of the sucrose solution (dose response curve): 0 to 1000 ppm in pH 3.2 buffered 5% sucrose solution; for sweetness enhancement of sucrose solutions by different forms of 2,4-DHB: 500 ppm in pH 3.2 buffered 0%, 3%, 5%, 7% and 9% sucrose; for SEV (%): 500 ppm potentiator in pH 3.2 buffered solution containing 5% sucrose
Description: (§1) One method of measuring the perceived sweetness of a solution is to match it with a stock sucrose solution of known concentration. In the present experiments, the compound of interest is added at a predetermined concentration to a pH 3.2 buffered solution containing 5% sucrose. A number of expert panel members then taste the solution and compare it to a battery of stock sucrose solutions ranging from 3% to 15% at increments of 1%. Each panel member decides which sucrose solution is equisweet with the solution containing the compound of interest. The mean value is then reported as the SEV. Results are reported to 1 decimal place.
In accordance with this methodology, 3-HB was added to a pH 3.2 buffered solution containing 5% sucrose to produce solutions containing from 0 to 1000 ppm 3-HB in 100 ppm increments. […] From FIG. 1 it is apparent that as the dosage of 3-HB increases so does the sweetness of the resultant solution. However the effect is non-linear with each incremental addition having a diminishing effect. The maximum sweetness attainable would appear to be about 7.9% SEV (based on a 5% sucrose solution).
The same methodology as described in Example 1 was repeated with 2,4-DHB in place of 3-HB, to produce the dose response curve for 2,4-DHB (FIG. 2). […] The maximum attainable sweetness would appear to be about 6.7% SEV (based on a 5% sucrose solution).
500 ppm of a sweetener potentiator was added to a pH 3.2 buffered solution containing 5% sucrose and the SEV of the resultant solution determined.
500 ppm of the sweetener potentiator then was added to a 5% sucrose solution containing 500 ppm 3-HB to produce a series of solutions. […] The use of 500 ppm of 3-HB alone results in an SEV of 6.9% whereas in all cases but two (2,4-DHB and 3,4-DHB) the addition of a second sweetener potentiator results in a little change or even a decrease in SEV. This is highly surprising considering that all of the potentiators are shown to have SEVs greater than 5%.
The methodology was repeated to produce a series of solutions containing 500 ppm 2,4-DHB and 500 ppm of a second sweetener potentiator.
500 ppm of 3-HB, 500 ppm of 2,4-DHB and 500 ppm of 3,4-dihydroxybenzoic acid (3,4-DHB) were added to a pH 3.2 buffered solution containing 5% sucrose and the SEV determined. The results are shown in FIG. 7 together with other combinations of 3-HB, 2,4-DHB and 3,4-DHB for comparison. The solution containing the combination of 3-HB and 2,4-DHB (hatched) has a much higher SEV (8.7%) than the combination of either 3,4-DHB and 3-HB (7.6%) or the combination of 3,4-DHB and 2,4-DHB (6.8%). The three-way combination of the embodiment (hatched) is better still with an SEV of 9.8%.
pH 3.2 buffered solutions were prepared containing 0%, 3%, 5%, 7% and 9% sucrose. 500 ppm of 2,4-DHB acid, 500 ppm of the sodium salt of 2,4-DHB and 500 ppm of the potassium salt of 2,4-DHB were added individually to each of the sucrose solutions. The SEV for each of the solutions was then determined.
500 ppm of 3-aminobenzoic acid and 500 ppm of 4-aminobenzoic acid were individually added to separate pH 3.2 buffered solutions containing 5% sucrose and the SEVs of the resultant solutions were determined. The SEV of 3-aminobenzoic acid was about 7%, i.e., increased the sweetness intensity of 5% sucrose to about 7%. The SEV of 4-aminobenzoic acid was about 5.5-6%, i.e., increased the sweetness intensity of 5% sucrose to about 5.5-6%.

[2] = system: sweetness perception of sweeteners; details: cited from earlier work
[3] = system: perceived sweetness of non-sucrose sweetener solutions (SEV about 5%); test: SEV of non-sucrose sweetener solutions after addition of potentiators; type: in vivo; details: 500 ppm 3-HB alone versus with 500 ppm 2,4-DHB, pH 3.2
Description: as §1
The SEV of each sweetener solution was then evaluated after the addition 500 ppm of 3-HB, the addition of 500 ppm of 2,4-DHB and the addition of both 500 ppm 3-HB and 2,4-DHB.

For O=C(O)c1ccc(O)cc1O [2,4-dihydroxybenzoic acid (2,4-DHB), 2,4-dihydroxybenzoic acid], the “effect on sweetness of the sucrose solution (dose response curve)” value [1] is listed as “enhances the sweetness of the sucrose solution”, the “sweetness enhancement of sucrose solutions by different forms of 2,4-DHB” value [1] is listed as “enhances the sweetness of the sucrose solution in every case” and the “effect on sweetness intensity of sucralose and aspartame” value ([2]; FIGS. 1 and 2, Tables 1 and 2 of US 6,461,658) is listed as “slightly inhibitory effect”. The listed taste character ([2]; US 5,232,735) was “substantially tasteless sweetness inhibitor”, the “effect on sweetness delivery profile of sucralose” value ([2]; US 6,461,658) was “significantly reducing the length of time during which sucralose sweetness is perceived” and the “effect on sweetness delivery profile of aspartame” value ([2]; US 6,461,658, compared with effect on sucralose) was “The same effect is not observed for aspartame”. For the same compound, the “effect on sweetness of aspartame” value ([2]; WO99/15032) was “increase sweetness synergistically”, the “effect with alitame, Ace-K, saccharin or a mixture of aspartame and Ace-K” value ([2]; WO99/15032, compared with effect on aspartame) was “same effect is not observed” and the “effect on sweetness of 5% sucrose solution” value ([2]; addition of 0.2% 2,4-DHB, Canadian Patent No. 1208966) was “increase in sweetness”.

For O=C([O-])c1ccc(O)cc1O.[Na+] [sodium salt of 2,4-DHB], the “sweetness enhancement of sucrose solutions by different forms of 2,4-DHB” value [1] was “enhances the sweetness of the sucrose solution in every case”.

For O=C(O)c1cc(O)c(O)c(O)c1 [3,4,5-tryhydroxybenzoic acid (3,4,5-THB), 3,4,5-tryhydroxybenzoic acid], the “SEV (%)” value [1] was 5.1%.

In the case of O=C(O)c1ccc(O)c(O)c1 [3,4-dihydroxybenzoic acid (3,4-DHB), 3,4-dihydroxybenzoic acid], the “SEV (%)” value [1] is reported as 6.4%.

For O=C(O)c1cccc(O)c1 [3-hydroxybenzoic acid (3-HB), 3-hydroxybenzoic acid], the “effect on sweetness of the sucrose solution (dose response curve)” value [1] was “enhances the sweetness of the sucrose solution”, the “SEV of solution containing 500 ppm 2,4-DHB and 500 ppm of a second sweetener potentiator” value ([1]; second potentiator 500 ppm added to 500 ppm 2,4-DHB, 5% sucrose) was “significant positive effect” and the “sweetness enhancement of saccharin solution, alone versus combination” value [3] was “enhances the sweetness to a greater degree alone than in combination with 2,4-DHB”. For the same compound, the “effect on sweetness of sucrose, aspartame and saccharin” value ([2]; pH 2.0 to 5.5, EP 0132444 and US 4,627,987) was “enhance sweetness”.

In the case of O=C([O-])c1ccc(O)cc1O.[K+] [potassium salt of 2,4-DHB], the “sweetness enhancement of sucrose solutions by different forms of 2,4-DHB” value [1] is reported as “enhances the sweetness of the sucrose solution in every case”.
